Patent US20090118331A1, “Use of Lobeline Epimers in the Treatment of Central Nervous System Diseases, Pathologies, and Drug Abuse” (priority 2007, published 2009)
Values joined by “and” are separate entries in the source; they are usually repeats but may differ in a detail not shown here. Equal entries are not always repeated.

What was measured:
[1] = Pharmacokinetics of lobeline and epimer after lobeline administration to rats (IV, SC, PO); conditions: rats
Protocol: Here, serial doses of lobeline were administered to male and female rats intravenously, subcutaneously or orally, and the pharmacokinetic profiles of the parent lobeline and its epimer were monitored in plasma.

[2] = Pharmacokinetics of lobeline and epimer in human subjects after sublingual lobeline administration (7.5, 15, 30 mg); conditions: for AUCext (percent of AUC(0-∞) determined by extrapolation) / Tlast (time of last measurable plasma concentration) / λz (terminal exponential rate constant): lobeline in plasma; for AUCext (percent of AUC(0-∞) determined by extrapolation) / Tlast (time of last measurable plasma concentration) / λz (terminal exponential rate constant) / CL/F (extravascular clearance): individual human subjects; for CL/F (extravascular clearance): lobeline
Description: The pharmacokinetics of lobeline and lobeline epimer were examined in eight human subjects (Sub) after sublingual lobeline administration.

[3] = Lobeline conversion to epimer in deionized water (HPLC); format: physicochemical
Protocol: Extensive in vitro studies on the epimerization of lobeline were conducted in a variety of aqueous media. […] The concentration of the lobeline solution (500 mL) was ca. 0.5 mg/mL, and 1.5 mL aliquot parts were removed in triplicate at each time point and analyzed by HPLC. Corresponding pH measurements were performed with a Coming Model 240 pH meter.

[4] = clinical; conditions: human, in vivo
Protocol: Three consecutive doses of lobeline (either 30, 45 and 45 mg in the first study group, or 60, 60 and 60 mg in the second group) were administered to human volunteers at 0800, 1200 and 1600 over two full inpatient days. The pharmacokinetics of lobeline and epimer were then assessed in each subject. […] A crude index of accumulation (non-steady state) was obtained by dividing the sixth dose trough concentration by that observed for the fifth dose.

[5] = Lobeline conversion to epimer in the HEPES buffer system used at 25° C. in the [^3H]DTBZ binding study (HPLC); format: physicochemical; conditions: for Lobeline %: [^3H]DTBZ binding buffer, 25° C.
Protocol: The initial dissolution of lobeline in water was followed by a 1:1 dilution of this stock solution in the appropriate HEPES buffer system, incubation at the prescribed temperature, and HPLC assay of each epimer and potential degradants over 2 hour incubation.
After 2 hours, the 25° C.

[6] = sublingual lobeline 30.0 mg, listed as lobeline

## CN1[C@@H](CC(=O)c2ccccc2)CCC[C@H]1C[C@H](O)c1ccccc1 [Lobeline, 2-[6S-(2S-hydroxy-2-phenyl-ethyl)-1-methyl-piperidin-2R-yl]-1-phenyl-ethanone]
[1]; depending on sex and route of administration
  ratio of lobeline to epimer in plasma (comparison of AUC; x to 1): 1.5-2
[1]; females compared to males
  systemic absorption of lobeline, followed by subsequent epimerization, when given orally: significantly reduced in females as compared to males
[2]; dose range from 7.5 to 30 mg, sublingual, human
  dose linearity of Cmax and CL/F: Linear kinetics
[2]; human, in vivo
  Combined urinary excretion of lobeline and epimer: ≤ 0.5%
[2]; human, in vivo, 30 mg
  AUC(0-inf): 8.02 ng·h/mL
[2]; human, in vivo, 30 mg, Terminal exponential phase half-life (T1/2), average
  half-life: ~2.4 h
[2]; human, in vivo, 30 mg, Terminal exponential phase half-lives (T1/2 values), range
  half-life: 1 to 5 h
[2]; human, in vivo, 30 mg, Tmax values, range
  Tmax: 0.25 to 3 h
[2]; human, in vivo, 30 mg, Tmax, average
  Tmax: 1.4 h
[2]; human, in vivo, mean T1/2 values, human subjects, sublingual lobeline
  half-life: ~2 h
[2]; humans
  equilibrium ratio of lobeline to epimer: 1 to 10
[2]; sublingual lobeline 7.50 mg
  AUCext (percent of AUC(0-∞) determined by extrapolation): 39.3% and 21.5% and 38.5% and 19.2% and 18.0% and 12.3% and 13.6% and 29.5%
  Tlast (time of last measurable plasma concentration): 3.03 hr and 4.00 hr (3×) and 4.05 hr and 6.00 hr (2×) and 12.00 hr
  λz (terminal exponential rate constant): 0.401 h⁻¹ and 0.403 h⁻¹ and 0.195 h⁻¹ and 0.295 h⁻¹ and 0.277 h⁻¹ and 0.183 h⁻¹ and 0.555 h⁻¹ and 0.367 h⁻¹
  CL/F (extravascular clearance): 2328 mL/min/kg and 844 mL/min/kg and 1116 mL/min/kg and 623 mL/min/kg and 792 mL/min/kg and 179 mL/min/kg and 1502 mL/min/kg and 1051 mL/min/kg
[2]; sublingual lobeline 15.0 mg
  AUCext (percent of AUC(0-∞) determined by extrapolation): 16.1% and 14.1% and 6.24% and 6.52% and 14.5% and 12.7% and 18.7% and 18.1%
  Tlast (time of last measurable plasma concentration): 4.17 hr and 4.00 hr and 6.00 hr (3×) and 8.00 hr (2×) and 11.00 hr
  λz (terminal exponential rate constant): 0.513 h⁻¹ and 0.544 h⁻¹ and 0.573 h⁻¹ and 0.341 h⁻¹ and 0.322 h⁻¹ and 0.206 h⁻¹ and 0.185 h⁻¹ and 0.321 h⁻¹
  CL/F (extravascular clearance): 1995 mL/min/kg and 866 mL/min/kg and 1364 mL/min/kg and 550 mL/min/kg and 1183 mL/min/kg and 188 mL/min/kg and 1194 mL/min/kg and 1068 mL/min/kg
[2]; sublingual lobeline 30.0 mg
  Tlast (time of last measurable plasma concentration): 8.02 h
  CL/F (extravascular clearance): 1809 mL/min/kg and 1169 mL/min/kg and 1269 mL/min/kg and 572 mL/min/kg and 1736 mL/min/kg and 162 mL/min/kg and 2340 mL/min/kg and 857 mL/min/kg
[2]; [6]
  AUCext (percent of AUC(0-∞) determined by extrapolation): 7.44% and 6.59% and 5.81% and 5.16% and 20.3% and 3.50% and 8.86% and 5.87%
  Tlast (time of last measurable plasma concentration): 4.00 h and 6.05 h and 12.17 h and 8.03 h and 22.75 h and 6.00 h and 8.00 h
  λz (terminal exponential rate constant): 0.878 h⁻¹ and 0.469 h⁻¹ and 0.314 h⁻¹ and 0.254 h⁻¹ and 0.149 h⁻¹ and 0.151 h⁻¹ and 0.376 h⁻¹ and 0.380 h⁻¹
[3]; Solution 1 (Lobeline in “fresh” DI Water), time 0, pH 6.02
  % Lobeline (Mean ± SD): 99.16%
[3]; Solution 1 (“fresh” DI Water), 15 min, pH 6.03-6.24
  % Lobeline (Mean ± SD): 99.17 ± 0.053%
[3]; Solution 1 (“fresh” DI Water), 30 min, pH 6.02-6.24
  % Lobeline (Mean ± SD): 99.01 ± 0.162%
[3]; Solution 1 (“fresh” DI Water), 45 min, pH 6.13-6.37
  % Lobeline (Mean ± SD): 99.06 ± 0.146%
[3]; Solution 1 (“fresh” DI Water), 1 h, pH 6.26-6.52
  % Lobeline (Mean ± SD): 99.00 ± 0.195%
[3]; Solution 1 (“fresh” DI Water), 80 min, pH 6.19-6.50
  % Lobeline (Mean ± SD): 98.54 ± 0.112%
[3]; Solution 1 (“fresh” DI Water), 100 min, pH 6.16-6.50
  % Lobeline (Mean ± SD): 98.50 ± 0.139%
[3]; Solution 1 (“fresh” DI Water), 2 h, pH 5.63-5.88
  % Lobeline (Mean ± SD): 98.42 ± 0.601%
[3]; Solution 2 (Lobeline in “8-h” DI Water), time 0, pH 7.87
  % Lobeline (Mean ± SD): 98.97%
[3]; Solution 2 (“8-h” DI Water), 15 min, pH 7.78-8.21
  % Lobeline (Mean ± SD): 99.34 ± 0.274%
[3]; Solution 2 (“8-h” DI Water), 30 min, pH 7.58-7.85
  % Lobeline (Mean ± SD): 99.49 ± 0.215%
[3]; Solution 2 (“8-h” DI Water), 45 min, pH 7.66-7.68
  % Lobeline (Mean ± SD): 99.35 ± 0.056%
[3]; Solution 2 (“8-h” DI Water), 1 h, pH 6.84-7.11
  % Lobeline (Mean ± SD): 99.20 ± 0.085%
[3]; Solution 2 (“8-h” DI Water), 80 min, pH 6.53-6.79
  % Lobeline (Mean ± SD): 99.11 ± 0.150%
[3]; Solution 2 (“8-h” DI Water), 100 min, pH 6.24-6.51
  % Lobeline (Mean ± SD): 98.99 ± 0.206%
[3]; Solution 2 (“8-h” DI Water), 2 h, pH 6.21-6.49
  % Lobeline (Mean ± SD): 98.78 ± 0.258%
[3]; fresh deionized water or water allowed to absorb atmospheric carbon dioxide for up to 8 hours, 2 hour time course
  conversion of lobeline to lobeline epimer: ca. 1%
[4]
  half-life: 3.91 h
  time at which geometric mean plasma concentration peaked: 1.26 h
[5]; HEPES [^3H]DTBZ binding buffer, after 2 hours at 25° C.
  final component concentration (as a function of the area under the curve): 83%
[5]; T0, sample age 0:01
  Lobeline %: 98.5%
[5]; T5, sample age 0:06
  Lobeline %: 97.8%
[5]; T10, sample age 0:10
  Lobeline %: 96.7%
[5]; T15, sample age 0:15
  Lobeline %: 95.5%
[5]; T20, sample age 0:20
  Lobeline %: 94.7%
[5]; T25, sample age 0:25
  Lobeline %: 94.1%
[5]; T30, sample age 0:31
  Lobeline %: 92.8%
[5]; T35, sample age 0:35
  Lobeline %: 92.7%
[5]; T40, sample age 0:40
  Lobeline %: 91.3%
[5]; T45, sample age 0:45
  Lobeline %: 90.7%
[5]; T50, sample age 0:50
  Lobeline %: 90.1%
[5]; T55, sample age 0:55
  Lobeline %: 89.9%
[5]; T60, sample age 1:00
  Lobeline %: 89.1%
[5]; T70, sample age 1:10
  Lobeline %: 87.8%
[5]; T80, sample age 1:20
  Lobeline %: 86.6%
[5]; T90, sample age 1:31
  Lobeline %: 85.5%
[5]; T100, sample age 1:40
  Lobeline %: 84.5%
[5]; T110, sample age 1:50
  Lobeline %: 83.5%
[5]; T120, sample age 2:01
  Lobeline %: 82.7%
